Assay results from patent US8815860B2, “Methods for preventing oxidative stress injury of a tissue by a Folate-TEMPOL conjugate” (Emory University, priority 2009, dated 2014).

Tests used:
[1] = test system: human proximal tubule (HK-2) cells; test: Superoxide concentration in LPS-treated cultured HK-2 cells measured by DHE-HPLC; assay type: cell-based; details: LPS treated HK-2 cells, normalized to protein concentration, n=3 (FIG. 1)
Description: Superoxide concentration was normalized to protein concentration. Data represent mean and SEM.
Typically, cultured human proximal tubule (HK-2) cells were treated with LPS to induce superoxide free radical formation. The level of superoxide is indicated by the formation of 2-hydroxyethidium as described, for example by Zielonka et al., (2008) Nat. Protocols 3: 8-21, incorporated herein by reference in its entirety.

[2] = test system: C57bl/6J mice, bilateral renal ischemia-reperfusion; test: 30 minute bilateral renal ischemia-reperfusion in mice; assay type: in vivo; details: for urinary albumin excretion: 24 hour urine, collected 48 hours following 30 minute bilateral renal ischemia-reperfusion (FIG. 2); for plasma creatinine levels: 48 hours following 30 minute bilateral renal ischemia-reperfusion (FIG. 3); for plasma blood urea nitrogen (BUN): 48 hours following 30 minutes bilateral renal ischemia-reperfusion (FIG. 4); for kidney superoxide (hydrocyanine-3 fluorescence, DHE-HPLC, nitrotyrosine staining): mouse kidney after 30 minutes renal ischemia (FIG. 6)
Description: Samples were collected 48 hours following 30 minute bilateral renal ischemia-reperfusion. Data represent mean and SEM.
(§1) Data represent mean and SEM.
BUN was measured 48 hours following 30 minutes bilateral renal ischemia-reperfusion. Data represent mean and SEM.
The effects of the Folate-TEMPOL conjugate of the present disclosure on renal ischemic-reperfusion injury prevention were observed by intravenously administering TEMPOL or Folate-TEMPOL. The renal artery was then clamped for about 30 mins, followed by 48 hours of reperfusion. Parameters measured as indicators of renal tubule injury included creatinine, BUN, and albumin levels both before and after ischemia. Also measured were the TEMPOL and Folate-TEMPOL concentrations in the plasma and the kidney.

[3] = test system: human proximal tubule (HK-2) cells; test: Uptake into HK-2 cells quantified by electron spin resonance (ESR); assay type: cell-based; details: after incubation with HK-2 cells, ESR (FIG. 5D, 5E)
[4] = Tissue concentration quantified by ESR in mice after 48 hour intravenous infusion; assay type: in vivo; details: kidney, ESR (FIG. 5F)
From the text: as §1

[5] = listed as Folate-TEMPOL conjugate

Row | SMILES | superoxide concentration in cultured HK-2 cells [1] | superoxide concentration in cultured HK-2 cells ([1]; listed as Folate-TEMPOL) | urinary albumin excretion [2] | urinary albumin excretion [2, 5] | plasma creatinine levels [2] | plasma creatinine levels [2, 5] | plasma blood urea nitrogen (BUN) [2] | plasma blood urea nitrogen (BUN) [2, 5] | renal structure, hematoxylin and eosin (H&E) staining of kidney sections ([2]; kidney sections harvested 48 hours post-ischemia (FIG. 7)) | kidney superoxide (hydrocyanine-3 fluorescence, DHE-HPLC, nitrotyrosine staining) [2] | kidney superoxide (hydrocyanine-3 fluorescence, DHE-HPLC, nitrotyrosine staining) [2, 5] | HK-2 cell concentration of tempol and tempol-folate [3] | HK-2 cell concentration of tempol and tempol-folate ([3]; listed as Folate-TEMPOL) | tissue tempol and tempol-folate concentration [4]
1 | CC1(C)CC(O)CC(C)(C)N1[O] [Tempol, 4-hydroxy-2,2,6,6-tetramethylpiperidine 1-oxyl] | effectively scavenged superoxide production |  |  |  |  |  |  |  |  |  |  |  |  | 
2 | CC1(C)CC(NC(=O)CCC(NC(=O)c2ccc(NCc3cnc4nc(N)nc(O)c4n3)cc2)C(=O)O)CC(C)(C)N1[O] (stereo not drawn) [tempol-folate] | effectively scavenged superoxide production | inhibits superoxide as efficiently as TEMPOL alone | prevents kidney injury more effectively than free tempol | the reduction was greater than if TEMPOL alone was used | preserves glomerular filtration rate from ischemia-reperfusion more effectively than unconjugated tempol | the reduction was greater than if TEMPOL alone was used | proximal tubule function is protected from ischemic injury by tempol-folate compared with free tempol | the reduction was greater than if TEMPOL alone was used | renal structure is protected from renal ischemia-reperfusion injury by tempol-folate treatment more efficiently than by ternpol treatment | more effective at scavenging superoxide in the kidney | significantly reduced | becomes more concentrated in cultured proximal tubule cells | accumulates in cultured proximal tubule cells to a greater extent than un-conjugated Tempol | becomes more concentrated in cultured proximal tubule cells and in vivo in kidneys of mice compared with tempol
